From patent EP1304333A2, “6,7-Oxygenated steroids and uses related thereto” (Inflazyme Pharmaceuticals, Ltd., priority 1996, dated 1998)

What was measured:
isolated trachea = assay: Allergen (OA)-induced contraction of isolated trachea from sensitized guinea pigs; set-up: species or system guinea pig; conditions: 20 µM compound
Procedure: The effects of a number of the compounds described herein on allergen-induced bronchoconstriction were evaluated for anti-asthma activity. The ability of a compound to inhibit allergen-induced decreases in lung function in sensitized guinea pigs in response to antigen-challenge is indicative of anti-asthma activity. In particular, the model system is useful in the evaluation of the potential effects of a compound in the treatment of the early asthmatic reaction (EAR) when severe bronchoconstriction occurs.
Guinea pigs were exposed to a nebulized solution of 1% ovalbumin (OA) in saline for 15 min. […] Tracheal rings were prepared and bathed in Krebs-Henseleit solution at 37°C and aerated with 5% CO2 in O2. Tissues were suspended under a resting tension of 2 g and isometric contractions were measured using force-displacement transducers coupled to a polygraph. Tissues were incubated with each compound or 0.1% dimethylsulfoxide (as a control) for 20 min, after which increasing concentrations of OA (0.001 - 100 µg/ml) were added to the tissue. After the final concentration of OA was added and the response was recorded, the tissues were stimulated with 100 µM methacholine which caused maximum contraction of the trachea. The magnitude of the contraction induced by OA in the presence of each compound was expressed as a percentage of the maximum contraction obtained using methacholine (100 µM).

rabbit platelets = assay: Inhibition of PAF-induced aggregation of rabbit platelets; assay type: cell-based; conditions: 80 µM compound, 5 min preincubation, PAF-induced aggregation (title: 0.1 nM PAF) vs DMSO alone; for inhibition at 80 µM: Oryctolagus cuniculus, Platelet
Procedure: The assay system used to evaluate the ability of compounds to inhibit the aggregation of platelets in response to exogenous stimuli is indicative of anti-thrombotic or thrombolytic activity.
Platelets were isolated from rabbit blood and prepared at a density of 2.4 x 10^8 cells/ml in Tyrodes buffer (pH 7.2) containing Ca^2+. Platelets were incubated with each compound for 5 min at 37°C prior to stimulation. Platelets were stimulated with 1 nM platelet activating factor (PAF; EC75) in the presence of each of the compounds and aggregation was monitored for 5 min. Compounds were solubilized in dimethylsulfoxide (DMSO) and aggregation was measured as a percentage of the response to 1 nM PAF obtained in the presence of the appropriate concentration of DMSO. The degree of inhibition caused by each sample was calculated using the control response in the presence of DMSO equal to 100%.

[1] = tested on: rat mast cell line (RBL-2H3); assay: Antigen-induced release of hexosaminidase from passively sensitized rat mast cells; assay type: cell-based; conditions: Table 3; each 25 µM; vs DMSO alone
Procedure: The anti-allergic effects of various polyhydroxylated steroids of the present invention were evaluated by measuring their effect on antigen-induced secretion of hexosaminidase from a passively sensitized rat mast cell line (RBL-2H3) and a murine mast cell line (MC/9). The ability of agents to inhibit the release of mast cell granule contents, e.g., histamine and hexosaminidase, is indicative of anti-allergy and/or anti-asthma activity.
Hexosaminidase is released from the mast cell granule along with histamine and other mediators during antigen challenge. RBL-2H3 and MC/9 cells were grown in culture and passively sensitized to dinitrophenol (DNP) using anti-human-DNP (IgE). […] Aliquots of the supernatant were removed and used to measure the amount of hexosaminidase released during challenge with the antigen. […] The effect of each compound was determined as a percentage of the antigen-induced response (minus background release) obtained in the presence of DMSO alone, as set forth in Tables 2 and 3. These values were used to determine the degrees of inhibition of antigen-induced hexosaminidase release from the cells.

[2] = tested on: ileum from sensitized guinea pigs; assay: Antigen (ovalbumin)-induced contraction of isolated ileum from sensitized guinea pigs; set-up: species or system guinea pig; conditions: each 30 µM, 20 min; 100 µg/ml ovalbumin; mean, n=3-4, vs DMSO alone
Procedure: The ability of compounds to inhibit allergen-induced contraction of ileum from sensitized animals is indicative of antiallergic activity. Sensitized guinea pig ileum is particularly useful in measuring the immediate allergic response.
The guinea pig ileum has been used to evaluate the ability of compounds to inhibit allergen-induced histamine and mediator release causing smooth muscle contraction. Guinea pigs were sensitized by an intraperitoneal injection of 100 mg ovalbumin and an intramuscular injection of 50 mg ovalbumin on day 0, followed by a second intramuscular injection of 50 mg ovalbumin on day 1. […] Segments of ileum were prepared and suspended, with muscle contractions being measured in the longitudinal plane, in Tyrode's buffer at 37°C and aerated with 5% CO2 in O2. Tissues were suspended under a resting tension of 2 grams and isometric contractions were measured using force-displacement transducers coupled to a polygraph. Tissues were stimulated with 3 µM histamine 3 times to ensure reproducible contractions were obtained. Tissues were then incubated with each compound (30 µM) or 0.15% dimethylsulphoxide (DMSO) as a control, for 20 min, after which time the tissues were challenged with 100 µg/ml ovalbumin. The magnitude of the contraction induced by OA in the presence of each compound was expressed as a percentage of the contraction obtained to 3 µM histamine. […]

Molecule	percentage contraction compared to 100µM methacholine (100%) (isolated trachea; Study 1, 0.001 µg/ml OA)	percentage contraction compared to 100µM methacholine (100%) (isolated trachea; Study 1, 0.003 µg/ml OA)	percentage contraction compared to 100µM methacholine (100%) (isolated trachea; Study 1, 0.01 µg/ml OA)	percentage contraction compared to 100µM methacholine (100%) (isolated trachea; Study 1, 0.03 µg/ml OA)	percentage contraction compared to 100µM methacholine (100%) (isolated trachea; Study 1, 0.1 µg/ml OA)	percentage contraction compared to 100µM methacholine (100%) (isolated trachea; Study 1, 0.3 µg/ml OA)	percentage contraction compared to 100µM methacholine (100%) (isolated trachea; Study 1, 1.0 µg/ml OA)	percentage contraction compared to 100µM methacholine (100%) (isolated trachea; Study 1, 3.0 µg/ml OA)	percentage contraction compared to 100µM methacholine (100%) (isolated trachea; Study 1, 10.0 µg/ml OA)	percentage contraction compared to 100µM methacholine (100%) (isolated trachea; Study 1, 30.0 µg/ml OA)	%Inhibition at 80 µM (rabbit platelets)	Percentage Inhibition (mean) RBL-2H3 Cells [1]	Percentage Inhibition [2]	inhibition at 80 µM (rabbit platelets)	percentage contraction compared to 100µM methacholine (100%) (isolated trachea; Study 2, 0.01 µg/ml OA)	percentage contraction compared to 100µM methacholine (100%) (isolated trachea; Study 2, 0.1 µg/ml OA)	percentage contraction compared to 100µM methacholine (100%) (isolated trachea; Study 2, 1 µg/ml OA)	percentage contraction compared to 100µM methacholine (100%) (isolated trachea; Study 2, 10 µg/ml OA)	percentage contraction compared to 100µM methacholine (100%) (isolated trachea; Study 2, 100 µg/ml OA)
3β, 4α, 6α, 7β, 17β-pentahydroxy-5α-androstane 6,7-acetonide [Compound 246]	2.6%	4.0%	6.5%	9.7%	12.2%	15.3%	20.0%	21.0%	23.0%	22.0%	21%	29.4%							
C[C@]12CC[C@@H](O)[C@H](O)C1[C@@H](O)[C@H](O)C1C2CC[C@]2(C)C(=O)CCC12 (some centres unmarked) [Compound 145]	0.8%	6.2%	5.9%	7.6%	8.3%	13.6%	14.8%	20.0%	28.0%	31.0%									
CC(C)[C@@H]1CC(O)OC([C@@H](C)[C@H]2CC(=O)[C@@H]3[C@@H]4C(O)C(O)C5C(O)C(O)CC[C@]5(C)[C@H]4CC[C@]23C)C1 (stereo partly drawn) [Compound 165, 22,29-epoxy-3,4,6,7,29-pentahydroxy-14β-stigmastan-15-one]													27.0%	51.2%					
CC1(C)O[C@@H]2C3C(CC[C@@]4(C)C3CC[C@@H]4O[Si](C)(C)C(C)(C)C)[C@@]3(C)CC[C@H](O)[C@@H](O)C3[C@H]2O1 (some centres unmarked) [Compound 236]	1.9%	5.6%	5.6%	5.6%	11.1%	16.7%	39%	28%	39%	41%									
C[C@]12CC[C@@H](O)[C@H](O)[C@@H]1[C@@H](O)[C@H](O)[C@@H]1[C@@H]2CC[C@]2(C)[C@@H](O)CC[C@@H]12 [Compound 241, 3α,4β,6α,7β,17β-pentahydroxy-5α-androstane]	8.5%	12.6%	17.1%	25.8%	31.0%	33.4%	36.3%	34.4%	35.0%	37.0%				93.1%					
C[C@]12CC[C@@H](O)C[C@@H]1[C@@H](O)[C@H](O)[C@@H]1[C@@H]2CC[C@]2(C)C(=O)CC[C@@H]12 [Compound 326]															0%	10.25%	23.4%	43.9%	49.1%
C[C@]12CC[C@@H](O)C[C@@H]1[C@@H](O)[C@H](O)[C@@H]1[C@@H]2CC[C@]2(C)[C@@H](O)CC[C@@H]12 [Compound 327]															0%	0%	9.1%	27.3%	40.9%
CC[C@H]1CCC2C3C(CC[C@@]21C)[C@@]1(C)CC[C@@H](O)CC1[C@@H](O)[C@@H]3O (some centres unmarked) [Compound 339]													36.3%						
